Measured values from patent US11833254B2, “Discoidal nano universal platform for efficient delivery of PNAs” (University of Connecticut, priority 2020, dated 2023).
{ooo} = Boc-miniPEG-3 linker between TAMRA and the PNA; {TAMRA} = TAMRA dye conjugated to the PNA N-terminus; {Lys} = C-terminal lysine residue of the PNA

Assay: Negative-stain transmission electron microscopy (TEM) of lipid/PNA complexes
Format: physicochemical
Procedure: Transmission electron microscopy (TEM): Negatively-stained transmission electron microscopic (TEM) images were obtained using FEI Tecnai T12. The samples were prepared by spreading 5 μL 0.001 wt. % solution on a 400 mesh Formvar/carbon film copper grid (Electron Microscopy Sciences, PA, USA) and negative staining was applied with 10 mg/mL of Uranyl acetate (SPI Supplies, PA, USA). The grids were then dried at 25° C. The accelerating voltage of the TEM was set at 80 kV.

Substance	morphology (TEM)
5′ TAMRA-ooo-ACCCCTATCACGATTAGCATTAA-Lys 3′ (all peptide nucleic acid (PNA), 5' {TAMRA}-{ooo}, 3' {Lys}) [PNA-155]	uniform discoidal morphology
5′ TAMRA-ooo-TCAGCCGCTGTCACACGCACAG-Lys-3′ (all peptide nucleic acid (PNA), 5' {TAMRA}-{ooo}, 3' {Lys}) [PNA-210]	uniform discoidal morphology
